From US20250197372A1 (priority 2020, published 2025)

Key:
Format in all cases: biochemical
[1] = target: rat sucrase (partially purified alpha-glucosidase from intestinal rat powder) (Rattus norvegicus, UniProt P23739); assay: Intestinal alpha-glucosidase assay, sucrose substrate (Glucose GO Kit)
Method in brief: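 First step: 60 min, 37 °C, compound with partially purified rat intestinal alpha-glucosidase. Next, maltose or sucrose for 30 min at 37 °C, ended at 90 °C for 5 min. Glucose quantified enzymatically; concentration–inhibition data fitted 4-PL for IC50.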

[2] = target: T1, recombinant human GBA (beta-glucocerebrosidase) (Homo sapiens, UniProt P04062); assay: Beta-glucocerebrosidase (GBA, glucosylceramidase) assay (4-methylumbelliferyl-beta-D-pyranoside substrate, fluorescence)
T1 sequence (P04062 40-536): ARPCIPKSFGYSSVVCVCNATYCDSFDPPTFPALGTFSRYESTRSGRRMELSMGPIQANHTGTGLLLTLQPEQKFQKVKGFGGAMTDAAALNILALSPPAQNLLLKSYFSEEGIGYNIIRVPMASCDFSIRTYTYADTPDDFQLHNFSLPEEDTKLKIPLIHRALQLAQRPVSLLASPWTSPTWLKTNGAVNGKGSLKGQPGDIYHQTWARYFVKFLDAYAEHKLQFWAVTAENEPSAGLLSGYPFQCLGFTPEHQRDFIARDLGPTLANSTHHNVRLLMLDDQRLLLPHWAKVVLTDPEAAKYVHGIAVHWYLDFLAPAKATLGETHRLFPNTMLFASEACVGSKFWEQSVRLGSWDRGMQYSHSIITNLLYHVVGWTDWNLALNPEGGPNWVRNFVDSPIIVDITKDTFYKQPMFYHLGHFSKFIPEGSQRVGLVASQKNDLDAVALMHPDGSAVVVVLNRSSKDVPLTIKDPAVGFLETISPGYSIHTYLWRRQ
Method in brief: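 IC50 by four-parameter fit of percent inhibition, with product fluorescence (365/440 nm) read after a glycine/NaOH pH 10 stop. Compound and commercial recombinant human enzyme were incubated 60 min at 37 °C before a further 60 min at 37 °C with 4-methylumbelliferyl-beta-D-pyranoside substrate.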

[3] = target: recombinant human GAA (acid alpha-glucosidase) (Homo sapiens, UniProt P10253); assay: Acid alpha-glucosidase (GAA) assay (4-methylumbelliferyl-alpha-D-pyranoside substrate, fluorescence)
Method in brief: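 IC50 from 4-PL curve fit of percent inhibition, based on fluorescence (365/440 nm) of released methylumbelliferone relative to uninhibited enzyme. Compound dilutions and human GAA incubated 60 min, 37 °C, before 20 min substrate reaction at 37 °C, quenched at pH 10.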

[4] = target: T2, recombinant alpha-glucosidase II (murine full-length glucosidase II, alpha and beta subunits, Glu 2) (Mus musculus, UniProt Q8BHN3); assay: Alpha-glucosidase II assay (4-methylumbelliferyl-alpha-D-pyranoside substrate, fluorescence); details: Glucosidase 2; read-out: Glu2 IC50
T2 construct: made in house; host or cells: HEK-293T cells transduced with BacMam viruses (75% alpha, 25% beta); protein harvested from culture supernatant
T2 sequence (O08795 15-521): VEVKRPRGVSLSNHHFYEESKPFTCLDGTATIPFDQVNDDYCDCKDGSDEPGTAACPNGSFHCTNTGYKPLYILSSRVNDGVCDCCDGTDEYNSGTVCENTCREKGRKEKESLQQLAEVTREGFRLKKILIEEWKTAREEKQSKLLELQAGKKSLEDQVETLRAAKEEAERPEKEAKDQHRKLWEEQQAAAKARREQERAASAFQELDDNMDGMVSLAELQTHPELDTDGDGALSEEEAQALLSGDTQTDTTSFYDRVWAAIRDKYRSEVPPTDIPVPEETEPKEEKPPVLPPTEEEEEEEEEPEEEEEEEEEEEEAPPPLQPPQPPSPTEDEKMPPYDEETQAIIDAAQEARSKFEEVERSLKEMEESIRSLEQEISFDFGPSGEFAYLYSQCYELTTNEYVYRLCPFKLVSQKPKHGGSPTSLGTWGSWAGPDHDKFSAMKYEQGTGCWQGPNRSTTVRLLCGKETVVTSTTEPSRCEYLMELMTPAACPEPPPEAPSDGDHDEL
T2 sequence (Q8BHN3 33-944): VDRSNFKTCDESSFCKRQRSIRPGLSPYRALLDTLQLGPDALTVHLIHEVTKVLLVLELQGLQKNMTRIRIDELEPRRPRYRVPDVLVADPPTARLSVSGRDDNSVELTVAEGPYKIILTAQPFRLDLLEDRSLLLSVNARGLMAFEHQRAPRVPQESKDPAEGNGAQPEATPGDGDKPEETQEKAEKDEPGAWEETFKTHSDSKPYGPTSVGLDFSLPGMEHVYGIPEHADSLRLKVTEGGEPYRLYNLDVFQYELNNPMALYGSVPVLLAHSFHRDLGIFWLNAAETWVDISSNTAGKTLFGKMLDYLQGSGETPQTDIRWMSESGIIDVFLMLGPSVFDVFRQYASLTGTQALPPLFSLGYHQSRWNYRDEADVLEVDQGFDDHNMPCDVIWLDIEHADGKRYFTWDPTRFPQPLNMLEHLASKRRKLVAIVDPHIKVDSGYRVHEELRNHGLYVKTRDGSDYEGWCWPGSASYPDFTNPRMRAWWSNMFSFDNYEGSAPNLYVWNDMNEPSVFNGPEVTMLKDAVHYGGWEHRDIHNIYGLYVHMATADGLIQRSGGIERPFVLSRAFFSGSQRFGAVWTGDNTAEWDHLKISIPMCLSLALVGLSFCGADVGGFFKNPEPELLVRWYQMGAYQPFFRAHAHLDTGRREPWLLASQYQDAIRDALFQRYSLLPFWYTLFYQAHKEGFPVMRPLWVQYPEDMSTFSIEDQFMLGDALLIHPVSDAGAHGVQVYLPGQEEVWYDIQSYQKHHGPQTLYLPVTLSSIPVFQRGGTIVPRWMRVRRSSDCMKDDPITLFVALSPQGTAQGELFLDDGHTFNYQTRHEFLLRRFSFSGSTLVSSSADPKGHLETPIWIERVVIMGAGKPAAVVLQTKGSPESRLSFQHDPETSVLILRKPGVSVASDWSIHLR

rat sucrase (partially purified alpha-glucosidase from intestinal rat powder), sequence (P23739 whole entry): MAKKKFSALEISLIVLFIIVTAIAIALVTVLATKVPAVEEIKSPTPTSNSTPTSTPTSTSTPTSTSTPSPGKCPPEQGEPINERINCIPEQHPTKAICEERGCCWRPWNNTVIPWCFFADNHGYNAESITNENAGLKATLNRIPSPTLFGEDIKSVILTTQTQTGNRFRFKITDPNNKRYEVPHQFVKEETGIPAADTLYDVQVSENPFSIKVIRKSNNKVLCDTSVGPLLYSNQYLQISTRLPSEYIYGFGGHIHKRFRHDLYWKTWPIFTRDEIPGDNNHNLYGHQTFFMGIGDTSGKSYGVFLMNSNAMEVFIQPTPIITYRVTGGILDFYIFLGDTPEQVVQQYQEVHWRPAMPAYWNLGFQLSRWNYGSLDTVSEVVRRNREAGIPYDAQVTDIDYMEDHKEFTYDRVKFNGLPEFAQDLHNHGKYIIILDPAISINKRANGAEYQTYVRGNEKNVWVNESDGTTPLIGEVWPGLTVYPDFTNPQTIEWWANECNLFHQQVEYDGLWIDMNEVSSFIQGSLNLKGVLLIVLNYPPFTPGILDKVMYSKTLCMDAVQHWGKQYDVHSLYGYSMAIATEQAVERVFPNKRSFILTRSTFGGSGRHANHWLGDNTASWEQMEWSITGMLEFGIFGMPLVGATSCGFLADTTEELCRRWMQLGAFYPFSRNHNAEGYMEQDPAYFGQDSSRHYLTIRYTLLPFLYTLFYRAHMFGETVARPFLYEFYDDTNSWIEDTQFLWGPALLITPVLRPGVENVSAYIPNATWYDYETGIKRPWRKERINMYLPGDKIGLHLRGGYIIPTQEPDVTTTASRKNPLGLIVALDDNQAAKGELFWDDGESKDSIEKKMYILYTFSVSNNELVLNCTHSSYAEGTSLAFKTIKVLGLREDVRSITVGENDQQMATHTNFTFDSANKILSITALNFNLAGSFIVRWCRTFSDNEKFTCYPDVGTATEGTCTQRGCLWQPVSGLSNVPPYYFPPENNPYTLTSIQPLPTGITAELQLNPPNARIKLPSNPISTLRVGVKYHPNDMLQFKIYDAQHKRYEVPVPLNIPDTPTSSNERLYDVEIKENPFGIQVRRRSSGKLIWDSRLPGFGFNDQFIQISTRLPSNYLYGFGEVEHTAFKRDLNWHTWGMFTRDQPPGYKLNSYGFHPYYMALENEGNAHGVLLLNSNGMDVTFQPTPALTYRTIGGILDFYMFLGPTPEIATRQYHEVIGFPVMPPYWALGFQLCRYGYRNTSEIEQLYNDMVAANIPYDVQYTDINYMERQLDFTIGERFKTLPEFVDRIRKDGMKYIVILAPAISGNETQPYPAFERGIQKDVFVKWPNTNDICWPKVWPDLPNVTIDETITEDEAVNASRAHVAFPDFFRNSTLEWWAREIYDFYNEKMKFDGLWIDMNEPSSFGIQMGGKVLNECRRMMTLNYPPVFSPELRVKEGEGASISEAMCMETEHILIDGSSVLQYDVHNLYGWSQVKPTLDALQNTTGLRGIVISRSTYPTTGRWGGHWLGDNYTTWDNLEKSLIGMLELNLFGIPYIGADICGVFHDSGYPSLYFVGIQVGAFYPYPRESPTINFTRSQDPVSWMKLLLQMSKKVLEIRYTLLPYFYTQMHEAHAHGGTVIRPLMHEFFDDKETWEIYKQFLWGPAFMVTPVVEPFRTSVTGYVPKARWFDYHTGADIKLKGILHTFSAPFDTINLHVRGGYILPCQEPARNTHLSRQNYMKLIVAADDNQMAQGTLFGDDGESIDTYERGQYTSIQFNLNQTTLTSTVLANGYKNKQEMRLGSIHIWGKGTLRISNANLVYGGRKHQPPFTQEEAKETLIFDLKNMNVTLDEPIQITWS

Structure (SMILES) | IC50 [1] [nM] | IC50 [2] [nM] | IC50 [3] [nM] | IC50 [4] [nM]
[N-]=[N+]=Nc1ccc(NCC[C@H]2CC[C@@H](CCN3C[C@H](O)[C@@H](O)[C@H](O)[C@H]3CO)CC2)c([N+](=O)[O-])c1 [Compound 1106, (2R,3R,4R,5S)-2-(hydroxymethyl)-1-{2-[(1s,4s)-4-{2-[(4-azido-2-nitrophenyl)amino]ethyl}cyclohexyl]ethyl}piperidine-3,4,5-triol] | 6 | 6970 | 36 | 9
OC[C@@H]1[C@@H](O)[C@H](O)[C@@H](O)CN1Cc1cccc(CNc2ccc(-c3ccc[nH]3)cc2)c1 [Compound 1082, (2R,3R,4R,5S)-2-(hydroxymethyl)-1-{[3-({[4-(1H-pyrrol-2-yl)phenyl]amino}methyl)phenyl]methyl}piperidine-3,4,5-triol] | 25 | 13800 | 872 | 5630
O=[N+]([O-])c1cc(-c2cccnn2)ccc1NCc1ccc(CN2C[C@H](O)[C@@H](O)[C@H](O)[C@H]2CO)cc1 [Compound 1101, (2R,3R,4R,5S)-2-(hydroxymethyl)-1-{[4-({[2-nitro-4-(pyridazin-3-yl)phenyl]amino}methyl)phenyl]methyl}piperidine-3,4,5-triol] | 4 | 32700 | 25 | 43
Cc1cc(NCc2ccc(CN3C[C@H](O)[C@@H](O)[C@H](O)[C@H]3CO)cc2)cc(-c2ncccn2)c1 [Compound 1053, (2R,3R,4R,5S)-2-(hydroxymethyl)-1-{[4-({[3-methyl-5-(pyrimidin-2-yl)phenyl]amino}methyl)phenyl]methyl}piperidine-3,4,5-triol] | 23 | > 100000 | 118 | 139
Cc1cc(NCc2ccc(CN3C[C@H](O)[C@@H](O)[C@H](O)[C@H]3CO)cc2)cc(C2=COCCO2)c1 [Compound 1050, (2R,3R,4R,5S)-1-{[4-({[3-(5,6-dihydro-1,4-dioxin-2-yl)-5-methylphenyl]amino}methyl)phenyl]methyl}-2-(hydroxymethyl)piperidine-3,4,5-triol] | 4 | > 100000 | 278 | 3
CS(=O)(=O)c1cc(NCc2ccc(CN3C[C@H](O)[C@@H](O)[C@H](O)[C@H]3CO)cc2)cc(-c2ncccn2)c1 [Compound 1059, (2R,3R,4R,5S)-2-(hydroxymethyl)-1-{[4-({[3-methanesulfonyl-5-(pyrimidin-2-yl)phenyl]amino}methyl)phenyl]methyl}piperidine-3,4,5-triol] | 45 | > 100000 | 74 | 58
O=[N+]([O-])c1cc(-c2ncco2)ccc1NCCc1ccc(CCN2C[C@H](O)[C@@H](O)[C@H](O)[C@H]2CO)cc1 [Compound 1112, (2R,3R,4R,5S)-2-(hydroxymethyl)-1-{2-[4-(2-{[2-nitro-4-(1,3-oxazol-2-yl)phenyl]amino}ethyl)phenyl]ethyl}piperidine-3,4,5-triol] | 915 | 4990 | 105 | 101
OC[C@@H]1[C@@H](O)[C@H](O)[C@@H](O)CN1Cc1cccc(CNc2ccc(-c3cccnn3)cc2)c1 [Compound 1083, (2R,3R,4R,5S)-2-(hydroxymethyl)-1-{[3-({[4-(pyridazin-3-yl)phenyl]amino}methyl)phenyl]methyl}piperidine-3,4,5-triol] | 28 | > 100000 | 1950 | 9990
N#Cc1cc(NCc2ccc(CN3C[C@H](O)[C@@H](O)[C@H](O)[C@H]3CO)cc2)cc(N2CCOCC2)c1 [Compound 1060, 3-(morpholin-4-yl)-5-{[(4-{[(2R,3R,4R,5S)-3,4,5-trihydroxy-2-(hydroxymethyl)piperidin-1-yl]methyl}phenyl)methyl]amino}-benzonitrile] | 52 | > 100000 | 86 | 262
[N-]=[N+]=Nc1ccc(NCC[C@H]2CC[C@H](CCN3C[C@H](O)[C@@H](O)[C@H](O)[C@H]3CO)CC2)c([N+](=O)[O-])c1 [Compound 1107, (2R,3R,4R,5S)-2-(hydroxymethyl)-1-{2-[(1r,4r)-4-{2-[(4-azido-2-nitrophenyl)amino]ethyl}cyclohexyl]ethyl}piperidine-3,4,5-triol] | 576 | 362 | 3190 | 41
O=[N+]([O-])c1cc(CN2CCCO2)ccc1NCCc1ccc(CCN2C[C@H](O)[C@@H](O)[C@H](O)[C@H]2CO)cc1 [Compound 1108, (2R,3R,4R,5S)-2-(hydroxymethyl)-1-(2-{4-[2-({2-nitro-4-[(1,2-oxazolidin-2-yl)methyl]phenyl}amino)ethyl]phenyl}ethyl)piperidine-3,4,5-triol] | 908 | 6000 | 311 | 7
N#Cc1cc(NCc2ccc(CN3C[C@H](O)[C@@H](O)[C@H](O)[C@H]3CO)cc2)cc(-c2cccnn2)c1 [Compound 1064, 3-(pyridazin-3-yl)-5-{[(4-{[(2R,3R,4R,5S)-3,4,5-trihydroxy-2-(hydroxymethyl)piperidin-1-yl]methyl}phenyl)methyl]amino}-benzonitrile] | 26 | 53700 | 39 | 2
COc1cc(NCCc2ccc(CCN3C[C@H](O)[C@@H](O)[C@H](O)[C@H]3CO)cc2)cc(-c2noc(C3CCC3)n2)c1 [Compound 1120, (2R,3R,4R,5S)-1-{2-[4-(2-{[3-(5-cyclobutyl-1,2,4-oxadiazol-3-yl)-5-methoxyphenyl]amino}ethyl)phenyl]ethyl}-2-(hydroxymethyl)piperidine-3,4,5-triol] | 506 | 13 | 581 | 1
CC(C)c1cc(CCNc2ccc(N=[N+]=[N-])cc2[N+](=O)[O-])cc(CCN2C[C@H](O)[C@@H](O)[C@H](O)[C@H]2CO)c1 [Compound 1077, (2R,3R,4R,5S)-1-[2-(3-{2-[(4-azido-2-nitrophenyl)amino]ethyl}-5-(propan-2-yl)phenyl)ethyl]-2-(hydroxymethyl)piperidine-3,4,5-triol] | 8140 | 379 | 10000 | 203
Cc1cc(CN2CCOCC2)cc(NCCCCCCN2C[C@H](O)[C@@H](O)[C@H](O)[C@H]2CO)c1 [Compound 1003, (2R,3R,4R,5S)-2-(hydroxymethyl)-1-[6-({3-methyl-5-[(morpholin-4-yl)methyl]phenyl}amino)hexyl]piperidine-3,4,5-triol] | 382 | 7680 | 299 | 2
O=[N+]([O-])c1cc(CN2CCCO2)ccc1NCc1cccc(CN2C[C@H](O)[C@@H](O)[C@H](O)[C@H]2CO)c1 [Compound 1086] | 76 | > 100000 | 976 | 44200
CN(Cc1ccc(CN2C[C@H](O)[C@@H](O)[C@H](O)[C@H]2CO)cc1)c1cc(-c2cccnn2)cc(C2CC2)c1 [Compound 1001, (2R,3R,4R,5S)-1-{[4-({[3-cyclopropyl-5-(pyridazin-3-yl)phenyl](methyl)amino}methyl)phenyl]methyl}-2-(hydroxymethyl)piperidine-3,4,5-triol] | 15 | 99700 | 91 | 437
OC[C@@H]1[C@@H](O)[C@H](O)[C@@H](O)CN1Cc1cccc(CNc2ccc(C3=COCCO3)cc2)c1 [Compound 1066, (2R,3R,4R,5S)-1-{[3-({[4-(5,6-dihydro-1,4-dioxin-2-yl)phenyl]amino}methyl)phenyl]methyl}-2-(hydroxymethyl)piperidine-3,4,5-triol] | 26 | > 100000 | 1060 | 3360
OC[C@@H]1[C@@H](O)[C@H](O)[C@@H](O)CN1CCc1cn(CCNc2ccccc2)c2ccccc12 [Compound 1076, (2R,3R,4R,5S)-2-(hydroxymethyl)-1-(2-{1-[2-(phenylamino)ethyl]-1H-indol-3-yl}ethyl)piperidine-3,4,5-triol] | 854 | 7810 | 4260 | 66
